Data published in ChEMBL document CHEMBL1201862, “PubChem BioAssay data set” (2004).
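Five compound concentrations were applied to cells in 96-well plates for 48 hours; endpoints were derived by simple linear interpolation of the resulting dose-response curve. GI50: concentration for 50% inhibition of growth.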 The source made the active and inactive calls. Rule as the data show it: active = GI50 up to about 1.1 µM and inactive = higher.

What was measured:
Assay in all cases: growth of human tumour cells (NCI), 48 h
786-0 = test system: 786-0
A549 = test system: A549
ACHN = test system: ACHN
COLO 205 = test system: COLO 205
DU-145 = test system: DU-145
HT-29 = test system: HT-29
M14 = test system: M14
MDA-MB-435 = test system: MDA-MB-435
MDA-N = test system: MDA-N
NCI-H460 = test system: NCI-H460
NCI-H522 = test system: NCI-H522
OVCAR-4 = test system: OVCAR-4
OVCAR-8 = test system: OVCAR-8
RPMI-8226 = test system: RPMI-8226
SF-268 = test system: SF-268
SF-295 = test system: SF-295
SK-MEL-2 = test system: SK-MEL-2
U-251 = test system: U-251

SMILES | GI50 (786-0) | GI50 (A549) | GI50 (ACHN) | GI50 (COLO 205) | GI50 (DU-145) | GI50 (HT-29) | GI50 (M14) | GI50 (MDA-MB-435) | GI50 (MDA-N) | GI50 (NCI-H460) | GI50 (NCI-H522) | GI50 (OVCAR-4) | GI50 (OVCAR-8) | GI50 (RPMI-8226) | GI50 (SF-268) | GI50 (SF-295) | GI50 (SK-MEL-2) | GI50 (U-251)
Oc1ccccc1/C=N/c1ccc(-c2nc3ccccc3[nH]2)cc1 | > 100 µM (inactive) | > 100 µM (inactive) | > 100 µM (inactive) | 47.2 µM (inactive) | 65.8 µM (inactive) | 81.8 µM (inactive) | 63.4 µM (inactive) | 67.6 µM (inactive) | 54.7 µM (inactive) | 54.8 µM (inactive) | 63.5 µM (inactive) | > 100 µM (inactive) | 47.1 µM (inactive) | 26.6 µM (inactive) | 43 µM (inactive) | 71 µM (inactive) | > 100 µM (inactive) | 49.9 µM (inactive)
O=C(O)C(Cc1ccccc1)NCc1c(O)ccc2c(-c3ccccc3)cc(=O)oc12 (stereo not given) | > 100 µM (inactive) | > 100 µM (inactive) | > 100 µM (inactive) | > 100 µM (inactive) | > 100 µM (inactive) | > 100 µM (inactive) | > 100 µM (inactive) | > 100 µM (inactive) | > 100 µM (inactive) | > 100 µM (inactive) | > 100 µM (inactive) | > 100 µM (inactive) | > 100 µM (inactive) | > 100 µM (inactive) | > 100 µM (inactive) | > 100 µM (inactive) | > 100 µM (inactive) | > 100 µM (inactive)
O=C1Nc2ccc(Br)cc2/C1=N/Nc1ccccc1[N+](=O)[O-] | 24.6 µM (inactive) | 9.29 µM (inactive) | 3.83 µM (inactive) | 12.1 µM (inactive) | 12.2 µM (inactive) | 13.8 µM (inactive) | 13.9 µM (inactive) | 21.1 µM (inactive) | 17 µM (inactive) | 9.73 µM (inactive) | 15.5 µM (inactive) | 14.4 µM (inactive) | 17.2 µM (inactive) | 16.4 µM (inactive) | 20.2 µM (inactive) | 14 µM (inactive) | 25.2 µM (inactive) | 35.4 µM (inactive)
CCCCCCCCCCOCCOCCOCCOCCCCC(O)CCCCCCCC1=C[C@H](C)OC1=O (stereo not given in full) | 18.6 µM (inactive) | 9.31 µM (inactive) | 11.7 µM (inactive) | 15.2 µM (inactive) | 14.7 µM (inactive) | 10.7 µM (inactive) | 14.3 µM (inactive) | 12 µM (inactive) | 11.6 µM (inactive) | 7.89 µM (inactive) | 6.34 µM (inactive) | 12.6 µM (inactive) | 13.4 µM (inactive) | 0.933 µM (active) | 10.9 µM (inactive) | 9.89 µM (inactive) | 12.5 µM (inactive) | 11.1 µM (inactive)
CC(=O)O[C@H]1[C@H](OC(C)=O)[C@@H](CN=[N+]=[N-])OCO[C@@H]1CN=[N+]=[N-] | > 100 µM (inactive) | > 100 µM (inactive) | > 100 µM (inactive) | > 100 µM (inactive) | > 100 µM (inactive) | > 100 µM (inactive) | > 100 µM (inactive) | > 100 µM (inactive) | > 100 µM (inactive) | > 100 µM (inactive) | > 100 µM (inactive) | > 100 µM (inactive) | > 100 µM (inactive) | > 100 µM (inactive) | > 100 µM (inactive) | > 100 µM (inactive) | > 100 µM (inactive) | > 100 µM (inactive)
CC1CC[C@@]2(OC1)OC1C[C@H]3[C@@H]4CC=C5C[C@@H](OC6OC(CO)C(OC7OC(CO)C(O)C(O)C7O)C(O)C6OC6OC(C)C(O)C(O)C6O)CC[C@]5(C)[C@H]4CC[C@]3(C)C1[C@@H]2C (stereo not given in full) | 0.49 µM (active) | 0.746 µM (active) | 1.24 µM (inactive) | 0.526 µM (active) | 0.476 µM (active) | 0.475 µM (active) | 0.479 µM (active) | 0.558 µM (active) | 0.863 µM (active) | 0.685 µM (active) | 0.998 µM (active) | 1.53 µM (inactive) | 0.659 µM (active) | 0.526 µM (active) | 0.593 µM (active) | 1.94 µM (inactive) | 0.759 µM (active) | 0.493 µM (active)
C/C(=N\Nc1nc2cccnc2s1)c1ccccn1 | 0.0512 µM (active) | 0.245 µM (active) | < 0.01 µM (active) | < 0.01 µM (active) | 0.316 µM (active) | < 0.01 µM (active) | < 0.01 µM (active) | 0.8 µM (active) | 1.81 µM (inactive) | 0.0369 µM (active) | < 0.01 µM (active) | 1.07 µM (active) | < 0.01 µM (active) | < 0.0143 µM (active) | 0.0284 µM (active) | 0.288 µM (active) | 2.98 µM (inactive) | < 0.0189 µM (active)
CC1(C)COCN1COC1CCCCC1 | > 100 µM (inactive) | > 100 µM (inactive) | > 100 µM (inactive) | > 100 µM (inactive) | > 100 µM (inactive) | > 100 µM (inactive) | > 100 µM (inactive) | > 100 µM (inactive) | > 100 µM (inactive) | > 100 µM (inactive) | > 100 µM (inactive) | > 100 µM (inactive) | > 100 µM (inactive) | > 100 µM (inactive) | > 100 µM (inactive) | > 100 µM (inactive) | > 100 µM (inactive) | > 100 µM (inactive)
Cc1ccnc2c1C(=O)C1=C(OC(C)(C)CC1O)C2=O (stereo not given) | 4.08 µM (inactive) | 8.77 µM (inactive) | 5.82 µM (inactive) | 2.41 µM (inactive) | 6.4 µM (inactive) | 3.08 µM (inactive) | 2.62 µM (inactive) | 1.32 µM (inactive) | 1.45 µM (inactive) | 2.9 µM (inactive) | 2.9 µM (inactive) | 3.01 µM (inactive) | 2.83 µM (inactive) | 4.06 µM (inactive) | 1.79 µM (inactive) | 3.81 µM (inactive) | 2.88 µM (inactive) | 3.34 µM (inactive)
Cc1ccc(S(=O)(=O)Nc2nc3ccccc3c(=O)n2C2CCCCC2)cc1 | > 100 µM (inactive) | > 100 µM (inactive) | > 100 µM (inactive) | > 100 µM (inactive) | > 100 µM (inactive) | > 100 µM (inactive) | > 100 µM (inactive) | > 100 µM (inactive) | > 100 µM (inactive) | 97.1 µM (inactive) | 41.7 µM (inactive) | 51.8 µM (inactive) | > 100 µM (inactive) | > 100 µM (inactive) | > 100 µM (inactive) | 23.1 µM (inactive) | > 100 µM (inactive) | 90.2 µM (inactive)
C=C(C)C1CC[C@@](C)(O)[C@H](C#N)C1 (stereo not given in full) | > 100 µM (inactive) | > 100 µM (inactive) | > 100 µM (inactive) | > 100 µM (inactive) | > 100 µM (inactive) | > 100 µM (inactive) | > 100 µM (inactive) | > 100 µM (inactive) | > 100 µM (inactive) | > 100 µM (inactive) | > 100 µM (inactive) | > 100 µM (inactive) | > 100 µM (inactive) | > 100 µM (inactive) | > 100 µM (inactive) | > 100 µM (inactive) | > 100 µM (inactive) | > 100 µM (inactive)
C=CC(C)(C)NC(C(=O)N1CCC[C@H]1c1nc(-c2nc(C(=O)OCC=C(C)C)c(C)o2)c(C)o1)C(C)C (stereo not given in full) | > 58.1 µM (inactive) | > 58.9 µM (inactive) | > 45.9 µM (inactive) | 34 µM (inactive) | > 84.7 µM (inactive) | > 52 µM (inactive) | > 62.2 µM (inactive) | > 45.1 µM (inactive) | 23.9 µM (inactive) | 31.9 µM (inactive) | > 100 µM (inactive) | 33.3 µM (inactive) | > 58.6 µM (inactive) | > 100 µM (inactive) | > 100 µM (inactive) | > 50 µM (inactive) | > 45.3 µM (inactive) | > 48.2 µM (inactive)
CCOC(=O)/C=C(/C(=O)OCC)n1cc(C)c(=O)n(/C(=C/C(=O)OCC)C(=O)OCC)c1=O | 1.28 µM (inactive) | 15.9 µM (inactive) | 1.89 µM (inactive) | 1.32 µM (inactive) | 13.7 µM (inactive) | 2.69 µM (inactive) | 2.31 µM (inactive) | 2.5 µM (inactive) | 3.78 µM (inactive) | 16.1 µM (inactive) | 0.49 µM (active) | 8.47 µM (inactive) | 5.35 µM (inactive) | 1.88 µM (inactive) | 8.45 µM (inactive) | 18.7 µM (inactive) | 14.7 µM (inactive) | 6.93 µM (inactive)
COC(=O)CCC(=O)NC1=C(NCc2ccccc2)C(=O)c2ccccc2C1=O | 38.5 µM (inactive) | 26.2 µM (inactive) | 27.4 µM (inactive) | 20.4 µM (inactive) | 45.3 µM (inactive) | 25.7 µM (inactive) | 18.7 µM (inactive) | 18.9 µM (inactive) | 16 µM (inactive) | 18 µM (inactive) | 19.1 µM (inactive) | 18.5 µM (inactive) | 27.7 µM (inactive) | 34 µM (inactive) | 39.8 µM (inactive) | 26.7 µM (inactive) | 18.8 µM (inactive) | 28.9 µM (inactive)
O=C1C=CC(=O)C(N(CCO)CCO)=C1.O=C1C=CC2(O)OCCN(CCO)C2=C1 | > 100 µM (inactive) | > 100 µM (inactive) | > 100 µM (inactive) | > 100 µM (inactive) | > 100 µM (inactive) | > 100 µM (inactive) | > 100 µM (inactive) | > 100 µM (inactive) | > 100 µM (inactive) | > 100 µM (inactive) | > 100 µM (inactive) | > 100 µM (inactive) | > 100 µM (inactive) | 91.6 µM (inactive) | > 100 µM (inactive) | > 100 µM (inactive) | > 100 µM (inactive) | > 100 µM (inactive)
